These results are taken from US10087199B2, “Super-resolution imaging compositions and methods using same” (Yale University, priority 2014, dated 2018).

Data set [1] deals with HeLa cells that stably expressed GalNAcT2-GFP (Golgi). The data set can be described thus: Two-step Golgi labeling and colocalization with GalNAcT2-GFP by confocal microscopy. Format: cell-based. The following applies: 2 μM Cer-TCO then 2 μM SiR-Tz, or SiR-Tz only; Golgi area; confocal. The procedure:
To evaluate whether the Golgi could be selectively imaged using Cer-SiR, HeLa cells that stably expressed a protein fusion composed of GFP and N-acetyl-galactosaminyltransferase 2 (GalNAcT2), a transmembrane protein that localizes to the Golgi with high specificity (Storrie, et al., 1998, J. Cell Biol. 143:1505-1521), were used. These cells were treated with 2 μM Cer-TCO (5 min), maintained at 19.5° C. for 60 min to localize the lipid to the Golgi, treated subsequently with 2 μM SiR-Tz (30 min), and visualized using confocal microscopy (FIG. 2A).
The GalNAcT2-GFP and Cer-SiR signals colocalized with a Pearson's coefficient of 0.50±0.02; the corresponding value for the signals from GalNAcT2-GFP and SiR-Tz was 0.08±0.01 (p<0.0001) (FIG. 10), supporting that Cer-TCO effectively localized to the Golgi and reacted efficiently with SiR-Tz.
Stably or transiently transfected HeLa cells were cultured on 35 mm glass bottom dishes (Mattek). To label with Cer-TCO/SiR-Tz, the cells were incubated in PBS containing 1% casein, 0.2% Pluronic F-127 and 2 or 5 μM TCO-Cer for 5 min at 37° C. After washing three times with DMEM ph(−), the cells were incubated for 1 h at 19.5° C. in DMEM ph(−). During this incubation the dish was sealed with parafilm to protect the cells from the used water bath. Subsequently, the cells were washed three times and PBS containing 1% casein and 2 or 1 μM SiR-Tz, respectively, was added to the dish. The dish was sealed with parafilm again and incubated for 30 min at 19.5° C. After washing three times with DMEM ph(−), the cells were observed under a confocal microscope. Fixed samples were prepared similarly with an additional treatment with 4% PFA for 10 min at room temperature after first temperature block. […]
The Pearson correlation between the SiR and the GFP signal within cells was determined using the correlation measurement tool in Volocity. […] For cells stably expressing GalNAcT2-GFP and treated with SiR-Tz and Cer-TCO 13 samples (cells) were analyzed and for cells only treated with SiR-Tz 8 samples were analyzed. […]

Data set [2] relates to HeLa cells. The data set can be described thus: Cell viability / cell- and photo-toxicity under prolonged imaging. The following applies: at concentrations as high as 2 μM. It is filed as cell-based. The method, then:
In the experiments described above, the cells were exposed to Cer-TCO/SiR-Tz for minutes, a relatively short time period. To evaluate whether this Golgi labeling strategy would result in cell- or photo-toxicity over prolonged periods (such as hours), HeLa cells were treated with varying concentrations of either Cer-TCO/SiR-Tz or BODIPY® FL C5-ceramide (BODIPY-Cer) (Marks, et al., 2008, Cell Biol. 130:819-832; Pagano, et al., 1991, J. Cell Biol. 113:1267-1279), a commercially available fluorescent dye that labels the Golgi. […]
Hela cells stably expressing GalNAcT2-GFP were cultured on 35 mm glass bottom dishes subsequently labeled with various concentrations of TCO-Cer (0, 1, 2, and 5 μM) and SiR-Tz (0, 1, and 2 μM) following the protocol described elsewhere herein. […] After equilibration for 30 min, phase contrast images were taken at an interval of 20 min and fluorescence images at an interval of 10 min over 400-750 min. […] The number of physically intact cells was counted at each time point. For each condition at least 110 cells were counted/observed in the initial images (n0 (0 μM TCO-Cer, 0 μM SiR-Tz)=123 cells, n0 (2 μM TCO-Cer, 2 μM SiR-Tz)=113 cells, n0 (1 μM TCO-Cer, 1 μM SiR-Tz)=130 cells, n0 (5 μM TCO-Cer, 1 μM SiR-Tz)=120 cells, n0 (5 μM BODIPY-Cer)=123 cells).

As for `CCCCCCCCCCCCC/C=C/[C@@H](O)[C@H](CO)NC(=O)CCCCCNC(=O)OC1CCCC2=C(c3ccc(CNC(=O)c4ccc(C(=O)[O-])c(C5=C6C=CC(=[N+](C)C)C=C6[Si](C)(C)c6cc(N(C)C)ccc65)c4)cc3)NN=CC2CC1` (stereo partly drawn) [Cer-SiR, 4-((4-(7-(((6-(((2S,3R,E)-1,3-dihydroxyoctadec-4-en-2-yl)amino)-6-oxohexyl)carbamoyl)oxy)-2,4a,5,6,7,8,9,10-octahydrocycloocta[d]pyridazin-1-yl)benzyl)carbamoyl)-2-(7-(dimethylamino)-3-(dimethyliminio)-5,5-dimethyl-3,5-dihydrodibenzo[b,e]silin-10-yl)benzoate], the “Pearson's coefficient of colocalization with GalNAcT2-GFP signal” value in data set [1] is 0.50±0.02. Further, the Toxicity entry in data set [2] is reported as “non-toxic”.
